Measured values published in patent publication US20260295053A1, “COMPOUNDS FOR DEGRADATION AND INHIBITION OF KRAS (G12D) PROTEIN” (Shenzhen Ionova Life Science Co., Ltd., priority 2023, published 2026).

What follows are compounds tested against T1, KRAS (G12D) (Homo sapiens, UniProt P01116, G12D) (assay: KRAS (G12D) cellular degradation assay in AsPC-1 cells). Conditions: 24 hours, antibody fluorescence (Odyssey CLX), DC50 half-maximal degradation concentration.
T1 construct: in-cell western with KRAS G12D antibody after 24 h
T1 sequence (P01116 1-188 isoform P01116-2 G12D): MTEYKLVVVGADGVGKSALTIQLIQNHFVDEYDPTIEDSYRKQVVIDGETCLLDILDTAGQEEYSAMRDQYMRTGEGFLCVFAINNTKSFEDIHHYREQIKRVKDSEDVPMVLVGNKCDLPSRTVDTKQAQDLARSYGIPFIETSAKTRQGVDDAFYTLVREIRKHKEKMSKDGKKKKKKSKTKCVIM
Assay type: cell-based
Experimental: ASPC-1 and PK-59 cellular assays ASPC-1 (ATCC cat. CRL-1682) and PK-59 (Nanjing Cobioer, Cat. No. CBP61184) were used in KRAS cellular degradation, pERK inhibition and proliferation assays. The two cell lines were maintained following vendor's instructions. For monitoring KRAS (G12D) cellular degradation and pERK biomarker inhibition, cells were seeded into a 96-well plate with 22,000 and 16,000 cells/well for assays in ASPC-1 and PK-59, respectively. Cells were incubated at 37° C. with 5% CO2 and cell density was monitored until ^~90% confluency was reached. Compounds were serially diluted at a 1:3 ratio and dispensed into each well at final concentrations ranging from […] to 1.5 nM. After incubation for 24 hours, the culture media were removed and the cells were subjected to fixation, permeabilization and blocking (Intercept blocking buffer, Li-cor). For KRAS (G12D) degradation, the cells were treated with primary antibody (KRAS G12D antibody, Cell Signaling Technologies, Cat. No. CST14429) and for β-actin (β-actin mAb, Beyotime, Cat. No. AF-5001), and followed by secondary antibodies, Anti-rabbit IgG (H+L) (DyLight™ 800 4×PEG Conjugate) or IRDye® 680RD Goat anti-Mouse IgG. For pERK inhibition assay, cells were treated with primary antibodies for pERK (Phospho-p44/42 MAPK (Erk1/2) (Thr202/Tyr204) (D13.14.4E) XP® Rabbit mAb, Cell Signaling Technologies, Cat. No. CST-4370) and β-actin (β-actin mAb, Beyotime, Cat. No. AF-5001), and followed by secondary antibodies, Anti-rabbit IgG (H+L) (DyLight™ 800 4×PEG Conjugate) or IRDye® 680RD Goat anti-Mouse IgG. Fluorescence signals were read on Odyssey CLX instrument. For cell proliferation assays, cells were seeded into a 96-well plate at 3,500 and 800 cells/well for assays in ASPC-1 and PK-59, respectively. Cells were incubated at 37° C. with 5% CO2 for overnight. Compounds were serially diluted at a 1:3 ratio and dispensed into each well at final concentrations ranging from […] to 1.5 nM. After incubation for 6 days, cell viability reagent (CellTiter Glo, Promega, Cat. No. G7573) was added to each well and luminescence was recorded on Molecular Devices Spectramax iD3 instrument. IC50, half-maximal inhibitory concentration for pERK inhibition or cell proliferation, and DC50, half-maximal degradation concentration in KRAS (G12D) cellular degradation were determined by fitting the corresponding dose response curves using GraphPad Prism software.
Wherein “A” means the value <10 nM, “B” means 10 nM<the value <100 nM, “C” means 100 nM<the value <1000 nM, and “D” means the value >1000 nM, in which, the value means the value of DC50 or IC50. NT means not tested.

| SMILES | DC50 [nM] |
| --- | --- |
| CCn1nccc1-c1ccc([C@H](CO)NC(=O)[C@@H]2C[C@@H](O)CN2C(=O)[C@H](C(C)C)n2cc(-c3ccc(COc4c(-c5c(C)c(F)cc6[nH]ncc56)c(C5CC5)cc5c(N6C[C@H]7C[C@@H]6CN7)nc(OC6CCOCC6)nc45)cc3)nn2)cc1 (single isomer, unassigned) [Example 16B] | > 1000 |
| CO[C@@H](C)COc1nc(N2C[C@@H]3C[C@H]2CN3)c2cc(C3CC3)c(-c3c(C)c(F)cc4[nH]ncc34)c(OCc3ccc(-c4cn([C@H](C(=O)N5C[C@H](O)C[C@H]5C(=O)N[C@H](C#Cc5cccc6c5cnn6C)CO)C(C)C)nn4)cc3)c2n1 [Example 134, (2S,4R)-1-((2S)-2-(4-(4-(((4-((1S,4S)-2,5-diazabicyclo[2.2.1]heptan-2-yl)-6-cyclopropyl-7-(6-fluoro-5-methyl-1H-indazol-4-yl)-2-((S)-2-methoxypropoxy)quinazolin-8-yl)oxy)methyl)phenyl)-1H-1,2,3-triazol-1-yl)-3-methylbutanoyl)-4-hydroxy-N—((R)-1-hydroxy-4-(1-methyl-1H-indazol-4-yl)but-3-yn-2-yl)pyrrolidine-2-carboxamide] | 10 to 100 |
| CCn1nccc1-c1ccc([C@@H](NC(=O)[C@@H]2C[C@@H](O)CN2C(=O)[C@H](C(C)C)n2cc(-c3ccc(COc4c(-c5c(C)c(F)cc6[nH]ncc56)c(C5CC5)cc5c(N6C[C@@H]7C[C@H]6CN7)nc(O[C@H]6C[C@H](OC)C6)nc45)cc3)nn2)[C@H](C)O)nc1 [Example 200, (2S,4R)-1-((2S)-2-(4-(4-(((4-((1S,4S)-2,5-diazabicyclo[2.2.1]heptan-2-yl)-6-cyclopropyl-7-(6-fluoro-5-methyl-1H-indazol-4-yl)-2-((1r,3S)-3-methoxycyclobutoxy)quinazolin-8-yl)oxy)methyl)phenyl)-1H-1,2,3-triazol-1-yl)-3-methylbutanoyl)-N-((1R,2S)-1-(5-(1-ethyl-1H-pyrazol-5-yl)pyridin-2-yl)-2-hydroxypropyl)-4-hydroxypyrrolidine-2-carboxamide] | < 10 |
| CCn1nccc1-c1ccc(CNC(=O)[C@@H]2C[C@@H](O)CN2C(=O)[C@H](C(C)C)n2cc(-c3ccc(COc4c(-c5c(C)c(F)cc6[nH]ncc56)c(C5CC5)cc5c(N6C[C@H]7C[C@@H]6CN7)nc(OC[C@H](C)OC)nc45)cc3)nn2)cc1 (single isomer, unassigned) [Example 7B] | > 1000 |
| CCn1cc2cccc(C#C[C@H](CO)NC(=O)[C@@H]3C[C@@H](O)CN3C(=O)[C@H](C(C)C)n3cc(-c4ccc(COc5c(-c6c(C)c(F)cc7[nH]ncc67)c(C6CC6)cc6c(N7C[C@@H]8C[C@H]7CN8)nc(O[C@H]7C[C@H](OC)C7)nc56)cc4)nn3)c2n1 [Example 168, (2S,4R)-1-((2S)-2-(4-(4-(((4-((1S,4S)-2,5-diazabicyclo[2.2.1]heptan-2-yl)-6-cyclopropyl-7-(6-fluoro-5-methyl-1H-indazol-4-yl)-2-((1r,3S)-3-methoxycyclobutoxy)quinazolin-8-yl)oxy)methyl)phenyl)-1H-1,2,3-triazol-1-yl)-3-methylbutanoyl)-N—((R)-4-(2-ethyl-2H-indazol-7-yl)-1-hydroxybut-3-yn-2-yl)-4-hydroxypyrrolidine-2-carboxamide] | 10 to 100 |
| CCn1nccc1-c1ccc([C@H](CO)NC(=O)[C@@H]2C[C@@H](O)CN2C(=O)[C@H](C(C)C)n2cc(-c3ccc(COc4c(-c5c(C)c(F)cc6[nH]ncc56)c(C5CC5)cc5c(N6CC7COCC(C6)N7)nc(OC[C@H](C)OC)nc45)cc3)nn2)cc1 [Example 37, (2S,4R)-1-((2S)-2-(4-(4-(((4-(3-oxa-7,9-diazabicyclo[3.3.1]nonan-7-yl)-6-cyclopropyl-7-(6-fluoro-5-methyl-1H-indazol-4-yl)-2-((S)-2-methoxypropoxy)quinazolin-8-yl)oxy)methyl)phenyl)-1H-1,2,3-triazol-1-yl)-3-methylbutanoyl)-N—((R)-1-(4-(1-ethyl-1H-pyrazol-5-yl)phenyl)-2-hydroxyethyl)-4-hydroxypyrrolidine-2-carboxamide] | 10 to 100 |

Now from value to compound:

| DC50 [nM] | SMILES |
| --- | --- |
| < 10 | CCn1nccc1-c1ccc([C@H](CO)NC(=O)[C@@H]2C[C@@H](O)CN2C(=O)[C@H](C(C)C)n2cc(-c3ccc(COc4c(-c5c(C)c(F)cc6[nH]ncc56)c(C5CC5)cc5c(N6CCC(N)CC6)nc(OC[C@H](C)OC)nc45)cc3)nn2)cc1 [Example 225, (2S,4R)-1-((2S)-2-(4-(4-(((4-(4-aminopiperidin-1-yl)-6-cyclopropyl-7-(6-fluoro-5-methyl-1H-indazol-4-yl)-2-((S)-2-methoxypropoxy)quinazolin-8-yl)oxy)methyl)phenyl)-1H-1,2,3-triazol-1-yl)-3-methylbutanoyl)-N—((R)-1-(4-(1-ethyl-1H-pyrazol-5-yl)phenyl)-2-hydroxyethyl)-4-hydroxypyrrolidine-2-carboxamide] |
| 10 to 100 | CCn1nccc1-c1ccc([C@H](CO)NC(=O)[C@@H]2C[C@@H](O)CN2C(=O)[C@H](C(C)C)n2cc(-c3ccc(COc4c(-c5c(C)c(F)cc6[nH]ncc56)c(C5CC5)cc5c(N6CCC(NC(C)=O)CC6)nc(OC[C@H](C)OC)nc45)cc3)nn2)cc1 [Example 226, (2S,4R)-1-((2S)-2-(4-(4-(((4-(4-acetamidopiperidin-1-yl)-6-cyclopropyl-7-(6-fluoro-5-methyl-1H-indazol-4-yl)-2-((S)-2-methoxypropoxy)quinazolin-8-yl)oxy)methyl)phenyl)-1H-1,2,3-triazol-1-yl)-3-methylbutanoyl)-N—((R)-1-(4-(1-ethyl-1H-pyrazol-5-yl)phenyl)-2-hydroxyethyl)-4-hydroxypyrrolidine-2-carboxamide] |
| 10 to 100 | CO[C@@H](C)COc1nc(N2C[C@@H]3C[C@H]2CN3)c2cc(C3CC3)c(-c3c(C)c(F)cc4[nH]ncc34)c(OCc3ccc(-c4cn([C@H](C(=O)N5C[C@H](O)C[C@H]5C(=O)N[C@H](C#Cc5ccnc6nn(C)cc56)CO)C(C)C)nn4)cc3)c2n1 [Example 191, (2S,4R)-1-((2S)-2-(4-(4-(((4-((1S,4S)-2,5-diazabicyclo[2.2.1]heptan-2-yl)-6-cyclopropyl-7-(6-fluoro-5-methyl-1H-indazol-4-yl)-2-((S)-2-methoxypropoxy)quinazolin-8-yl)oxy)methyl)phenyl)-1H-1,2,3-triazol-1-yl)-3-methylbutanoyl)-4-hydroxy-N—((R)-1-hydroxy-4-(2-methyl-2H-pyrazolo[3,4-b]pyridin-4-yl)but-3-yn-2-yl)pyrrolidine-2-carboxamide] |
| 10 to 100 | CO[C@@H](C)COc1nc(N2C[C@@H]3C[C@H]2CN3)c2cc(C3CC3)c(-c3c(C)c(F)cc4[nH]ncc34)c(OCc3ccc(-c4cn([C@H](C(=O)N5C[C@H](O)C[C@H]5C(=O)N[C@H](C#Cc5cccc6c5ncn6C)CO)C(C)C)nn4)cc3)c2n1 [Example 140, (2S,4R)-1-((2S)-2-(4-(4-(((4-((1S,4S)-2,5-diazabicyclo[2.2.1]heptan-2-yl)-6-cyclopropyl-7-(6-fluoro-5-methyl-1H-indazol-4-yl)-2-((S)-2-methoxypropoxy)quinazolin-8-yl)oxy)methyl)phenyl)-1H-1,2,3-triazol-1-yl)-3-methylbutanoyl)-4-hydroxy-N—((R)-1-hydroxy-4-(1-methyl-1H-benzo[d]imidazol-4-yl)but-3-yn-2-yl)pyrrolidine-2-carboxamide] |
| < 10 | CCn1nccc1-c1ccc([C@H](CO)NC(=O)[C@@H]2C[C@@H](O)CN2C(=O)[C@H](C(C)C)n2cc(-c3ccc(COc4c(-c5c(C)c(F)cc6[nH]ncc56)c(C5CC5)cc5c(N(C)C[C@@H]6CCCN6)nc(OC[C@H](C)OC)nc45)cc3)nn2)cc1 [Example 228, (2S,4R)-1-((2S)-2-(4-(4-(((6-cyclopropyl-7-(6-fluoro-5-methyl-1H-indazol-4-yl)-2-((S)-2-methoxypropoxy)-4-(methyl(((S)-pyrrolidin-2-yl)methyl)amino)quinazolin-8-yl)oxy)methyl)phenyl)-1H-1,2,3-triazol-1-yl)-3-methylbutanoyl)-N—((R)-1-(4-(1-ethyl-1H-pyrazol-5-yl)phenyl)-2-hydroxyethyl)-4-hydroxypyrrolidine-2-carboxamide] |
